Results as given in patent US12702676B2, “Fosfomycin dosing regimens” (priority 2017, dated 2026).

Assays:
[1] = tested on: baseline bacterial pathogen in cUTI or AP; test: ZEUS Phase 2/3 noninferiority trial, efficacy at TOC in hospitalized adults; assay type: in vivo, human
Method: Oral step-down therapy was prohibited (FIG. 4).
A post-hoc analysis using pulsed-field gel electrophoresis (PFGE) was performed to molecularly type all baseline and TOC pathogens (both treatment arms), in order to confirm microbiological eradication/persistence; a total of 20 post-baseline pathogens were identified as unique, unrelated strains compared to baseline.

[2] = ZEUS Phase 2/3 trial, safety (adverse events)
[3] = Bacteremia, m-MITT (N1 19 ZTI-01, 13 P-T)
[4] = CE-TOC (N1 199 ZTI-01, 196 P-T)
[5] = ME-TOC (N1 155 ZTI-01, 145 P-T)
[6] = Original Analysis, ME-TOC (N1 155 ZTI-01, 145 P-T)
[7] = Original Analysis, m-MITT (N1 184 ZTI-01, 178 P-T)
[8] = Post-hoc Analysis Using PFGE Typing, ME-TOC (N1 155 ZTI-01, 145 P-T)
[9] = Post-hoc Analysis Using PFGE Typing, m-MITT (N1 184 ZTI-01, 178 P-T)
[10] = SIRS, m-MITT (N1 62 ZTI-01, 52 P-T)
[11] = m-MITT (N1 184 ZTI-01, 178 P-T)
[12] = MITT Safety Population (n = 233 ZTI-01, n = 231 P-T)

C[C@@H]1O[C@@H]1P(=O)(O)O [ZTI-01, fosfomycin]
Clinical Response at TOC: Eradication [1, 3]: 15 (78.9%) n (%)
Clinical Response at TOC: Indeterminate [1, 3]: 2 (10.5%) n (%)
Clinical Response at TOC: Persistence [1, 3]: 2 (10.5%) n (%)
Overall Response at TOC: Eradication [1, 3]: 9 (47.4%) n (%)
Overall Response at TOC: Indeterminate [1, 3]: 3 (15.8%) n (%)
Overall Response at TOC: Persistence [1, 3]: 7 (36.8%) n (%)
Per-patient Microbiological Response at TOC: Eradication [1, 3]: 9 (47.4%) n (%)
Per-patient Microbiological Response at TOC: Indeterminate [1, 3]: 4 (21.2%) n (%)
Per-patient Microbiological Response at TOC: Persistence [1, 3]: 6 (31.6%) n (%)
Clinical Response at TOC: Cure [1, 4]: 188 (94.5%) n (%)
Clinical Response at TOC: Failure [1, 4]: 11 (5.5%) n (%)
Clinical Response at TOC: Treatment Difference (ZTI-01 vs P-T) ([1]; CE-TOC, 95% CI (−3.7, 6.9)): 1.6%
Clinical Response at TOC: Cure [1, 5]: 148 (95.5%) n (%)
Clinical Response at TOC: Failure [1, 5]: 7 (4.5%) n (%)
Clinical Response at TOC: Treatment Difference (ZTI-01 vs P-T) ([1]; ME-TOC, 95% CI (−3.5, 8.3)): 2.4%
Clinical Response at TOC: Cure ([1]; MITT (N1 233 ZTI-01, 231 P-T)): 211 (90.6%) n (%)
Clinical Response at TOC: Failure ([1]; MITT (N1 233 ZTI-01, 231 P-T)): 11 (4.7%) n (%)
Clinical Response at TOC: Indeterminate ([1]; MITT (N1 233 ZTI-01, 231 P-T)): 11 (4.7%) n (%)
Clinical Response at TOC: Treatment Difference (ZTI-01 vs P-T) ([1]; MITT, 95% CI (−6.8, 4.4)): −1.2%
Microbiological Response at TOC: Eradication [1, 6]: 109 (70.3%) n (%)
Microbiological Response at TOC: Persistence [1, 6]: 46 (29.7%) n (%)
Microbiological Response at TOC: Eradication [1, 7]: 121 (65.8%) n (%)
Microbiological Response at TOC: Indeterminate [1, 7]: 13 (7.1%) n (%)
Microbiological Response at TOC: Persistence [1, 7]: 50 (27.2%) n (%)
Microbiological Response at TOC: Eradication [1, 8]: 117 (75.5%) n (%)
Microbiological Response at TOC: Persistence [1, 8]: 38 (24.5%) n (%)
Microbiological Response at TOC: Eradication [1, 9]: 130 (70.7%) n (%)
Microbiological Response at TOC: Indeterminate [1, 9]: 13 (7.1%) n (%)
Microbiological Response at TOC: Persistence [1, 9]: 41 (22.3%) n (%)
Clinical Response at TOC: Eradication [1, 10]: 55 (88.7%) n (%)
Clinical Response at TOC: Indeterminate [1, 10]: 4 (6.5%) n (%)
Clinical Response at TOC: Persistence [1, 10]: 3 (4.8%) n (%)
Overall Response at TOC: Eradication [1, 10]: 41 (66.1%) n (%)
Overall Response at TOC: Indeterminate [1, 10]: 5 (8.1%) n (%)
Overall Response at TOC: Persistence [1, 10]: 16 (25.8%) n (%)
Patient Microbiological response at TOC: Eradication [1, 10]: 41 (66.1%) n (%)
Patient Microbiological response at TOC: Indeterminate [1, 10]: 7 (11.3%) n (%)
Patient Microbiological response at TOC: Persistence [1, 10]: 14 (22.6%) n (%)
Clinical Response at TOC: Cure [1, 11]: 167 (90.8%) n (%)
Clinical Response at TOC: Failure [1, 11]: 9 (4.9%) n (%)
Clinical Response at TOC: Indeterminate [1, 11]: 8 (4.3%) n (%)
overall success rates at TOC ([1]; m-MITT population, clinical cure plus microbiologic eradication, 6 g ZTI-01 q8h or 4.5 g P-T q8h IV): 64.7%
difference in overall success rate (ZTI-01 vs P-T) ([1]; m-MITT, TOC, 95% CI −0.4, 20.8): 10.2%
Clinical Response at TOC: Treatment Difference (ZTI-01 vs P-T) ([1]; m-MITT, 95% CI (−7.2, 5.6)): −0.8%
overall success rates using unique pathogen strains typed by PFGE ([1]; post-hoc analysis, m-MITT, TOC): 69.0%
difference in overall success rate using PFGE typing (ZTI-01 vs P-T) ([1]; post-hoc, 95% CI 1.3, 22.1): 11.7%
effective (patients with AP) ([1]; preferred dosing regimen 6 g tid): 68%
Any AEs [2, 12]: 99 (42.5%) n (%)
Any TEAEs [2, 12]: 98 (42.1%) n (%)
Drug-related SAE [2, 12]: 1 (0.4%) n (%)
Drug-related TEAEs [2, 12]: 48 (20.6%) n (%)
SAEs [2, 12]: 5 (2.1%) n (%)
Serious TEAEs leading to study drug discontinuation [2, 12]: 0 (0%) n (%)
TEAEs leading to study drug discontinuation [2, 12]: 7 (3.0%) n (%)
TEAEs: Mild [2, 12]: 84 (36.1%) n (%)
TEAEs: Moderate [2, 12]: 35 (15.0%) n (%)
TEAEs: Severe [2, 12]: 5 (2.1%) n (%)
SAE related to study drug (1 in each treatment group) ([2]; in vivo): hypokalemia
tolerability ([2]; majority of AEs mild to moderate): generally well tolerated
treatment-emergent adverse events (TEAEs) observed, % of patients ([2]; safety population (n=464)): 42.1%
